Assay results as given in patent publication US20260325533A1, “CDK INHIBITOR COMPOUNDS” (ALEKSIA THERAPEUTICS, INC., priority 2023, published 2026).
Read-outs that look alike come from different tables or passages of the source. One block for each molecule: values may come before it.

What was measured:
Type in all cases: biochemical
CDK1/CCNB1 = CDK1/CCNB1 (Homo sapiens, UniProt P06493); test: CDK1 homogeneous time-resolved fluorescence (HTRF) kinase assay
Summary of the method: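 Kinase activity is measured as Lance signal (665 nm, or 665/615 nm ratio) from europium-labelled anti-phospho-Thr37/46 antibody binding ULight-4E-BP1 peptide. Reactions contain 0.5 nM enzyme, 1 mM ATP, 1% DMSO and run 60 min at 23 °C before EDTA quench.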

CDK6/CCND1 = CDK6/CCND1 (Homo sapiens, UniProt Q00534); test: CDK6 homogeneous time-resolved fluorescence (HTRF) kinase assay
Sequence of CDK6/CCND1 (Q00534 whole entry): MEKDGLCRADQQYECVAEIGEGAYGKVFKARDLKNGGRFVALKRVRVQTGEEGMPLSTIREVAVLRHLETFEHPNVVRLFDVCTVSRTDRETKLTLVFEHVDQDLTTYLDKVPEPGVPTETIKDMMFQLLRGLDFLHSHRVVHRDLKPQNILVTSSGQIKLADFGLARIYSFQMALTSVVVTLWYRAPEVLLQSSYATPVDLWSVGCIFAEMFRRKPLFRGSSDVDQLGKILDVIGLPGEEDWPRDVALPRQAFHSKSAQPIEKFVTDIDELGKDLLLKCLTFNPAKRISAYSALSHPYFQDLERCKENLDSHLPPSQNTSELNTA
Sequence of CDK6/CCND1 (P24385 whole entry partner): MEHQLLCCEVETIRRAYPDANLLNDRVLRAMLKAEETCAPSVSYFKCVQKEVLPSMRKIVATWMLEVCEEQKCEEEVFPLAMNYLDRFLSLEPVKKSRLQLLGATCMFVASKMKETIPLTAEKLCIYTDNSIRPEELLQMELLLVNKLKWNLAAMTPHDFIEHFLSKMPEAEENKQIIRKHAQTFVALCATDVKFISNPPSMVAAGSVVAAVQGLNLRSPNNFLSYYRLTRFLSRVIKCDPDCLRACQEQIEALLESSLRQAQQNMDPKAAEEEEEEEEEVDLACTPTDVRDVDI
Summary of the method: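 Assay conditions: HEPES buffer containing 10 mM MgCl2, 1 mM EGTA, 2 mM DTT, 0.01% Tween 20; 1 nM CDK6/CCND1, 50 nM peptide substrate, 1 mM ATP. Detection after 60 min reaction used 2 nM europium antibody with 340 nm excitation. Potency fitted from half-log series, 11 points.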

CDK2/CCNE1 = CDK2/CCNE1 (Homo sapiens, UniProt P24941); test: CDK2 homogeneous time-resolved fluorescence (HTRF) kinase assay
Summary of the method: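 IC50 derived from 11-point, half-log dilutions (usually top 10 μM) of compound, 1% DMSO. Kinase (3 nM CDK2/CCNE1) was preincubated with compound 20 min, then phosphorylated 50 nM ULight-4E-BP1 peptide at 1 mM ATP for 60 min, 23 °C. Europium-antibody TR-FRET read after EDTA stop.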

CDK4/CCND3 = CDK4/CCND3 (Homo sapiens, UniProt P11802); test: CDK4 homogeneous time-resolved fluorescence (HTRF) kinase assay
Sequence of CDK4/CCND3 (P11802 whole entry): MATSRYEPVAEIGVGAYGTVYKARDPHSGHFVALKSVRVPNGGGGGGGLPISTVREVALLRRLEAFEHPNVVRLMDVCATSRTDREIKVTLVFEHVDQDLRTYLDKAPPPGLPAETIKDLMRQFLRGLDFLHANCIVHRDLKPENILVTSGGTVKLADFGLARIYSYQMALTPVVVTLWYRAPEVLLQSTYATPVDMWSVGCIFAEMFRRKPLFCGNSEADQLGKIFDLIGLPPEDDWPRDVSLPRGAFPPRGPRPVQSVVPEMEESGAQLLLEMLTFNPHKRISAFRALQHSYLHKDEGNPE
Sequence of CDK4/CCND3 (P30281 whole entry partner): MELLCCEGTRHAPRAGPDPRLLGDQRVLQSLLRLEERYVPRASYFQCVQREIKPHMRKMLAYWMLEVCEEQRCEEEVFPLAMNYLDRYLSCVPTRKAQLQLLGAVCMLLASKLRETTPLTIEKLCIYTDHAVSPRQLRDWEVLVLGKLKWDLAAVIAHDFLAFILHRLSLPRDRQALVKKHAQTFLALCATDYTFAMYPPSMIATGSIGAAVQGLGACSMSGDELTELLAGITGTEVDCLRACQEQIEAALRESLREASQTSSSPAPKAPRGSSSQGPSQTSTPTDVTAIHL
Summary of the method: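 IC50s derive from Lance 665 nm or 665/615 nm signals in 11-point, half-log dose series (top 10 μM, 1% DMSO). The enzyme, 1.5 nM CDK4/CCND3, phosphorylates 50 nM ULight-4E-BP1 peptide with 1 mM ATP over 60 min at 23 °C.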

[1] = >250 nM, CDK1/CCNB, read-out: CDK1/CCNB IC50 >250 nM
[2] = >250 nM, CDK6/CCND, 1 mM ATP, read-out: CDK6/CCND IC50, >250 nM
[3] = 25-250 nM, CDK2/CCNE, read-out: CDK2/CCNE IC50, 25-250 nM
[4] = >250 nM, CDK4/CCND, read-out: CDK4/CCND IC50, >250 nM
[5] = CDK1/CCNB, x = IC50 >250 nM, read-out: CDK1/CCNB IC50 (>250 nM column)
[6] = CDK6/CCND, x = IC50 >250 nM, read-out: CDK6/CCND IC50 (>250 nM column)
[7] = CDK2/CCNE, x = IC50 25-250 nM, read-out: CDK2/CCNE IC50 (25-250 nM)
[8] = CDK4/CCND, x = IC50 >250 nM, read-out: CDK4/CCND IC50 (>250 nM column)
[9] = CDK2/CCNE, x = IC50 >250 nM, read-out: CDK2/CCNE IC50 (>250 nM column)
[10] = CDK1/CCNB, >250 nM marked x, read-out: CDK1/CCNB IC50 >250 nM
[11] = CDK6/CCND, >250 nM marked x, read-out: CDK6/CCND IC50 >250 nM
[12] = CDK2/CCNE, <25 nM, read-out: CDK2/CCNE IC50 <25 nM
[13] = CDK4/CCND, >250 nM marked x, read-out: CDK4/CCND IC50 >250 nM
[14] = 25-250 nM, CDK6/CCND, 1 mM ATP, read-out: CDK6/CCND IC50, 25-250 nM
[15] = <25 nM, CDK2/CCNE, read-out: CDK2/CCNE IC50, <25 nM

Sequence of CDK1/CCNB1 (P06493 whole entry): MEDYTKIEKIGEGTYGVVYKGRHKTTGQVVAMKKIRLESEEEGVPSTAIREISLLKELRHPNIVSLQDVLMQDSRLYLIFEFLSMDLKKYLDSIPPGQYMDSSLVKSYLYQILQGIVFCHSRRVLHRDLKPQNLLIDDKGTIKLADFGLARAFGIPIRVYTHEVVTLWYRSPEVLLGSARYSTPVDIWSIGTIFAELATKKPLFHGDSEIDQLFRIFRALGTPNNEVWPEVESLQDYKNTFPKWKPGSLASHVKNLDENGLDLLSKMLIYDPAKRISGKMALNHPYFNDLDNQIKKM
Sequence of CDK1/CCNB1 (P14635 whole entry partner): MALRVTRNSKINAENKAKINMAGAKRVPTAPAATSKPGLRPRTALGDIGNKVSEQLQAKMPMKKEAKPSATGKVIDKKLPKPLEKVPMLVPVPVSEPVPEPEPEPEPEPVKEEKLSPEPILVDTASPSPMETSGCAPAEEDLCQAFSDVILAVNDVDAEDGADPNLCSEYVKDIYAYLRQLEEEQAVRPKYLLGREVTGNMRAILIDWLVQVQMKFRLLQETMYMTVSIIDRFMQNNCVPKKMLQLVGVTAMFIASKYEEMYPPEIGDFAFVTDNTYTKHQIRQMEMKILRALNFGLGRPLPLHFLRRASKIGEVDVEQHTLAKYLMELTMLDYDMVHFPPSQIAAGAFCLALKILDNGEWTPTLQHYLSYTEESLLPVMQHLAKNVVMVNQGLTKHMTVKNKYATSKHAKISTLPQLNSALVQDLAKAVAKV

IC50 (CDK1/CCNB1; CDK1/CCNB, x = IC50 <25 nM, read-out: CDK1/CCNB IC50 (<25 nM)): < 25 nM
IC50 (CDK6/CCND1; CDK6/CCND, x = IC50 25-250 nM, read-out: CDK6/CCND IC50 (25-250 nM)): 25 to 250 nM
IC50 (CDK2/CCNE1; CDK2/CCNE, x = IC50 <25 nM, read-out: CDK2/CCNE IC50 (<25 nM)): < 25 nM
IC50 (CDK4/CCND3; CDK4/CCND, x = IC50 <25 nM, read-out: CDK4/CCND IC50 (<25 nM)): < 25 nM
SMILES: CN1CCC(NS(=O)(=O)c2ccc(Nc3cc4c(C#Cc5ccc6c(c5)NC(=O)C6(C)C)nccc4cn3)cc2)CC1 [Example 441, 4-((5-((3,3-dimethyl-2-oxoindolin-6-yl)ethynyl)-2,6-naphthyridin-3-yl)amino)-N-(1-methylpiperidin-4-yl)benzenesulfonamide]

IC50 (CDK1/CCNB1; [1]): > 250 nM
IC50 (CDK6/CCND1; [2]): > 250 nM
IC50 (CDK2/CCNE1; [3]): 25 to 250 nM
IC50 (CDK4/CCND3; [4]): > 250 nM
SMILES: Cn1cc2ccc(C#Cc3nccc4cnc(Nc5ccc(S(C)(=O)=O)cc5)cc34)cc2n1 [Ex 859, 5-((2-methyl-2H-indazol-6-yl)ethynyl)-N-(4-(methylsulfonyl)phenyl)-2,6-naphthyridin-3-amine]

IC50 (CDK1/CCNB1; [5]): > 250 nM
IC50 (CDK6/CCND1; [6]): > 250 nM
IC50 (CDK2/CCNE1; [7]): 25 to 250 nM
IC50 (CDK4/CCND3; [8]): > 250 nM
SMILES: Cc1c(-c2nccc3cnc(Nc4ccc(S(C)(=O)=O)cc4)cc23)ccc2nn(CC(C)O)cc12 (racemic) [Ex 675, 1-(4-methyl-5-(7-((4-(methylsulfonyl)phenyl)amino)-2,6-naphthyridin-1-yl)-2H-indazol-2-yl)propan-2-ol]

IC50 (CDK1/CCNB1; [5]): > 250 nM
IC50 (CDK6/CCND1; [6]): > 250 nM
IC50 (CDK2/CCNE1; [9]): > 250 nM
IC50 (CDK4/CCND3; [8]): > 250 nM
SMILES: CS(=O)(=O)c1ccc(Nc2cc3c(C#Cc4cnc(C#N)nc4)nccc3cn2)cc1 [Ex 523, 5-((7-((4-(methylsulfonyl)phenyl)amino)-2,6-naphthyridin-1-yl)ethynyl)pyrimidine-2-carbonitrile]

IC50 (CDK1/CCNB1; [5]): > 250 nM
IC50 (CDK6/CCND1; [6]): > 250 nM
IC50 (CDK2/CCNE1; [7]): 25 to 250 nM
IC50 (CDK4/CCND3; [8]): > 250 nM
SMILES: N=S(=O)(c1ccc(Nc2cc3c(C#Cc4cccnc4N)nccc3cn2)cc1)C1CC1 (single isomer, unassigned) [Ex 417, (4-((5-((2-aminopyridin-3-yl)ethynyl)-2,6-naphthyridin-3-yl)amino)phenyl)(cyclopropyl)(imino)-l6-sulfanone]

IC50 (CDK1/CCNB1; [5]): > 250 nM
IC50 (CDK6/CCND1; [6]): > 250 nM
IC50 (CDK2/CCNE1; [7]): 25 to 250 nM
IC50 (CDK4/CCND3; [8]): > 250 nM
SMILES: Nc1ncccc1C#Cc1nccc2cnc(Nc3ccc(S(=O)(=O)C4CCC4)cc3)cc12 [Example 398, 5-((2-aminopyridin-3-yl)ethynyl)-N-(4-(cyclobutylsulfonyl)phenyl)-2,6-naphthyridin-3-amine]

IC50 (CDK1/CCNB1; [1]): > 250 nM
IC50 (CDK6/CCND1; [2]): > 250 nM
IC50 (CDK2/CCNE1; [3]): 25 to 250 nM
IC50 (CDK4/CCND3; [4]): > 250 nM
SMILES: Cc1c(-c2nccc3cnc(Nc4ccc(S(=O)(=O)Nc5ccccc5)cc4)cc23)ccc2c1cnn2CC(O)(C(F)(F)F)C(F)(F)F [Ex 728, 4-((5-(4-methyl-1-(3,3,3-trifluoro-2-hydroxy-2-(trifluoromethyl)propyl)-1H-indazol-5-yl)-2,6-naphthyridin-3-yl)amino)-N-phenylbenzenesulfonamide]

IC50 (CDK1/CCNB1; [5]): > 250 nM
IC50 (CDK6/CCND1; [6]): > 250 nM
IC50 (CDK2/CCNE1; [7]): 25 to 250 nM
IC50 (CDK4/CCND3; [8]): > 250 nM
SMILES: Cc1c(-c2nccc3cnc(Nc4ccc(S(C)(=O)=O)cc4)cc23)ccc2c1cnn2C(=O)NC(C)(C)C [Example 668, N-(tert-butyl)-4-methyl-5-(7-((4-(methylsulfonyl)phenyl)amino)-2,6-naphthyridin-1-yl)-1H-indazole-1-carboxamide]

IC50 (CDK1/CCNB1; [10]): > 250 nM
IC50 (CDK6/CCND1; CDK6/CCND, 25-250 nM marked x, read-out: CDK6/CCND IC50 25-250 nM): 25 to 250 nM
IC50 (CDK2/CCNE1; [12]): < 25 nM
IC50 (CDK4/CCND3; CDK4/CCND, <25 nM, read-out: CDK4/CCND IC50 <25 nM): < 25 nM
SMILES: CS(=O)(=O)c1ccc(Nc2cc3c(C#C[C@H]4CC[C@H](O)CC4)nccc3cn2)cc1 [Ex 150, (1r,4r)-4-((7-((4-(methylsulfonyl)phenyl)amino)-2,6-naphthyridin-1-yl)ethynyl)cyclohexan-1-ol]

The next lines start with the molecule.

SMILES: Cc1c(-c2nccc3cnc(Nc4ccc(S(C)(=O)=O)cc4)nc23)ccc2nn(C)cc12 [Example 965, 8-(2,4-dimethyl-2H-indazol-5-yl)-N-(4-(methylsulfonyl)phenyl)pyrido[3,4-d]pyrimidin-2-amine]
IC50 (CDK1/CCNB1; 0.5 nM CDK1/CCNB1, 1 mM ATP, read-out: CDK1/CCNB IC50 >250 nM): > 250 nM
IC50 (CDK6/CCND1; 1 nM CDK6/CCND1, 1 mM ATP, read-out: CDK6/CCND IC50 >250 nM): > 250 nM
IC50 (CDK2/CCNE1; 3 nM CDK2/CCNE1, 1 mM ATP, read-out: CDK2/CCNE IC50 <25 nM): < 25 nM
IC50 (CDK4/CCND3; 1.5 nM CDK4/CCND3, 1 mM ATP, read-out: CDK4/CCND IC50 >250 nM): > 250 nM

SMILES: C=CS(=O)(=O)c1ccc(Nc2cc3c(C#CC)nccc3cn2)cc1 [Ex 149, 5-(prop-1-yn-1-yl)-N-(4-(vinylsulfonyl)phenyl)-2,6-naphthyridin-3-amine]
IC50 (CDK1/CCNB1; [10]): > 250 nM
IC50 (CDK6/CCND1; [11]): > 250 nM
IC50 (CDK2/CCNE1; [12]): < 25 nM
IC50 (CDK4/CCND3; [13]): > 250 nM

SMILES: CCS(=N)(=O)c1ccc(Nc2cc3c(C#Cc4cccnc4N)nccc3cn2)cc1 (single isomer, unassigned) [Ex 474, (4-((5-((2-aminopyridin-3-yl)ethynyl)-2,6-naphthyridin-3-yl)amino)phenyl)(ethyl)(imino)-l6-sulfanone]
IC50 (CDK1/CCNB1; [5]): > 250 nM
IC50 (CDK6/CCND1; [6]): > 250 nM
IC50 (CDK2/CCNE1; [7]): 25 to 250 nM
IC50 (CDK4/CCND3; [8]): > 250 nM

SMILES: Cc1c(-c2nccc3cnc(Nc4ccc(S(=O)(=O)NC5CCNC5)cc4)cc23)ccc2c1cnn2CC(C)(C)O (racemic) [Ex 791, 4-((5-(1-(2-hydroxy-2-methylpropyl)-4-methyl-1H-indazol-5-yl)-2,6-naphthyridin-3-yl)amino)-N-(pyrrolidin-3-yl)benzenesulfonamide]
IC50 (CDK1/CCNB1; 25-250 nM, CDK1/CCNB, read-out: CDK1/CCNB IC50, 25-250 nM): 25 to 250 nM
IC50 (CDK6/CCND1; [14]): 25 to 250 nM
IC50 (CDK2/CCNE1; [15]): < 25 nM
IC50 (CDK4/CCND3; <25 nM, CDK4/CCND, read-out: CDK4/CCND IC50, column <25 nM): < 25 nM

SMILES: COc1cc(S(C)(=N)=O)ccc1Nc1cc2c(C#Cc3ccc4c(c3)NC(=O)C43CCC3)nccc2cn1 (single isomer, unassigned) [Ex 313, 6'-((7-((2-methoxy-4-(S-methylsulfonimidoyl)phenyl)amino)-2,6-naphthyridin-1-yl)ethynyl)spiro[cyclobutane-1,3'-indolin]-2'-one]
IC50 (CDK1/CCNB1; [10]): > 250 nM
IC50 (CDK6/CCND1; [11]): > 250 nM
IC50 (CDK2/CCNE1; CDK2/CCNE, 25-250 nM marked x, read-out: CDK2/CCNE IC50 25-250 nM): 25 to 250 nM
IC50 (CDK4/CCND3; [13]): > 250 nM

SMILES: CC(C)(O)Cn1cnc2ccc(C#Cc3nccc4cnc(Nc5ccc(S(C)(=O)=O)cc5)cc34)cc21 [Ex 543, 2-methyl-1-(6-((7-((4-(methylsulfonyl)phenyl)amino)-2,6-naphthyridin-1-yl)ethynyl)-1H-benzo[d]imidazol-1-yl)propan-2-ol]
IC50 (CDK1/CCNB1; [5]): > 250 nM
IC50 (CDK6/CCND1; [6]): > 250 nM
IC50 (CDK2/CCNE1; [9]): > 250 nM
IC50 (CDK4/CCND3; [8]): > 250 nM

SMILES: CS(=O)(=O)c1ccc(Nc2cc3c(C#Cc4n[nH]c5c4CCC5)nccc3cn2)cc1 [Ex 531, N-(4-(methylsulfonyl)phenyl)-5-((1,4,5,6-tetrahydrocyclopenta[c]pyrazol-3-yl)ethynyl)-2,6-naphthyridin-3-amine]
IC50 (CDK1/CCNB1; [5]): > 250 nM
IC50 (CDK6/CCND1; [6]): > 250 nM
IC50 (CDK2/CCNE1; [7]): 25 to 250 nM
IC50 (CDK4/CCND3; [8]): > 250 nM

SMILES: Cc1ccnc(NS(=O)(=O)c2ccc(Nc3cc4c(-c5ccc6c(cnn6CC(C)(C)O)c5C)nccc4cn3)cc2)n1 [Ex 908, 4-((5-(1-(2-hydroxy-2-methylpropyl)-4-methyl-1H-indazol-5-yl)-2,6-naphthyridin-3-yl)amino)-N-(4-methylpyrimidin-2-yl)benzenesulfonamide]
IC50 (CDK1/CCNB1; [1]): > 250 nM
IC50 (CDK6/CCND1; [14]): 25 to 250 nM
IC50 (CDK2/CCNE1; [15]): < 25 nM
IC50 (CDK4/CCND3; 25-250 nM, CDK4/CCND, read-out: CDK4/CCND IC50, 25-250 nM): 25 to 250 nM
